{"source": "paper PMC4489612", "about": "“Unravelling the Evolution of the Allatostatin-Type A, KISS and Galanin Peptide-Receptor Gene Families in Bilaterians: Insights from Anopheles Mosquitoes” (PLoS ONE, 2015)", "key": {"[1]": {"system": "GPRALS1", "assay": "iCa^2+ release (Fluo-4 NW) in stable CHO cells expressing GPRALS1", "assay_type": "cell-based, Anopheles coluzzii", "conditions": "1 nM to 1 μM (BLAST-2 0.5 μM to 0.005 μM)", "experimental": "(§1) The amplified insect receptors included the initiation and termination codons but were not cloned in frame with vector tag proteins. The recombinant constructs were used to transfect mammalian CHO cells that had been maintained in complete Dulbecco’s modified Eagle’s medium (DMEM, Sigma, Spain) containing 4.5 g/L glucose, 110 mg/L sodium pyruvate and L-glutamine and supplemented with 10% sterile foetal bovine serum and 0.1% penicillin: streptomycin antibiotic mix (10.000 U: 10 mg/ml, Sigma) and 250μg/ml sterile filtered amphotericin B solution (1:100 dilution, Sigma, Spain). One day prior to transfection, 2–3 x10^5 cells were seeded into 6 well plates (Sarstedt, Portugal) and transfected using Fugene 6 reagent (1: 6 DNA: Fugene, Roche, Germany) according to the manufacturer’s protocol. The efficiency and success of cell transfection was estimated by performing a simultaneous transfection with a plasmid encoding a fluorescent protein. 72 h after incubation, transformed cells were selected by supplementing medium with 800μg/ml of the antibiotic Geneticin (G418 sulphate, GibcoBRL, USA) and cell recovery was monitored daily and the medium changed until no cell death was observed. Establishment of AST-AR CHO stable cell lines were confirmed by PCR using receptor specific primers.\n(§2) GPRALS1 and GPRALS2 stable CHO cell lines were stimulated with Ano_AST-A1 and Ano_AST-A2 peptides, the B. germanica BLAST-2 peptide and rat GAL and sea bass KISS peptides and iCa^2+ release and cAMP production were measured.\n(§3) For iCa^2+ release (Relative Fluorescent Units, RFU) a Ca^2+ sensitive fluorescent dye Fluo-4 NW (Molecular Probes, Invitrogen) was used. Approximately 50,000 cells were assayed per well and the variation in fluorescence after addition of increasing peptide concentrations (1 nM to 1 μM, diluted in the assay buffer) was measured every 5s over a total of 2 min and fluorescence was excited using a 485/20 nm filter and captured with a 528/20 nm filter in a Biotek Synergy 4 plate reader (Biotek, USA). Background RFU of transfected cells was measured prior to peptide stimulation. The controls consisted of transfected cells exposed to carbachol (100 nM; Sigma, Spain) and non-transfected CHO cells stimulated with 1 μM of each peptide (negative control).\n(§4) Quantitative expression data is presented as mean ± SEM of cDNA from 3 independent experiments analysed in duplicate. Significant changes in transcript expression were assessed using a nonparametric Mann-Whitney two-tailed test. Receptor activation is presented as the mean ± SEM of three independent experiments carried out in triplicate and statistical significance was assessed using a Kruskal-Wallis test with Dunn’s Multiple Comparison Test. […]"}, "[2]": {"system": "GPRALS2", "assay": "iCa^2+ release (Fluo-4 NW) in stable CHO cells expressing GPRALS2", "assay_type": "cell-based, Anopheles coluzzii", "conditions": "1 nM to 1 μM (BLAST-2 0.5 μM to 0.005 μM)", "experimental": "as §1, §2, §3, §4"}, "[3]": {"system": "GPRALS1", "assay": "cAMP production (competitive immunoassay) in stable CHO cells expressing GPRALS1", "assay_type": "cell-based, Anopheles coluzzii", "conditions": "1 x PBS/1 mM IBMX, 30 min at 37°C, cryptate labelled anti-cAMP antibody, triplicate on three occasions", "experimental": "(§5) The amplified insect receptors included the initiation and termination codons but were not cloned in frame with vector tag proteins. The recombinant constructs were used to transfect mammalian CHO cells that had been maintained in complete Dulbecco’s modified Eagle’s medium (DMEM, Sigma, Spain) containing 4.5 g/L glucose, 110 mg/L sodium pyruvate and L-glutamine and supplemented with 10% sterile foetal bovine serum and 0.1% penicillin: streptomycin antibiotic mix (10.000 U: 10 mg/ml, Sigma) and 250μg/ml sterile filtered amphotericin B solution (1:100 dilution, Sigma, Spain). […] 72 h after incubation, transformed cells were selected by supplementing medium with 800μg/ml of the antibiotic Geneticin (G418 sulphate, GibcoBRL, USA) and cell recovery was monitored daily and the medium changed until no cell death was observed. […]\nas §2\n(§6) The amount of cAMP produced was determined using a competitive immunoassay with a cryptate labelled anti-cAMP antibody (Cisbio, France) and following the manufactures protocol. […]\n(§7) Quantitative expression data is presented as mean ± SEM of cDNA from 3 independent experiments analysed in duplicate. […]"}, "[4]": {"system": "GPRALS2", "assay": "cAMP production (competitive immunoassay) in stable CHO cells expressing GPRALS2", "assay_type": "cell-based, Anopheles coluzzii", "conditions": "1 x PBS/1 mM IBMX, 30 min at 37°C, cryptate labelled anti-cAMP antibody, triplicate on three occasions", "experimental": "as §5, §2, §6, §7"}, "[5]": {"system": "DAR-1", "conditions": "D. melanogaster DAR-1; cited from earlier work"}, "[6]": {"system": "DAR-2", "conditions": "D. melanogaster DAR-2; cited from earlier work"}, "[7]": {"system": "galanin receptors (GALR)", "conditions": "vertebrates; cited from earlier work", "excerpt": "AST-A peptides activate specific G-protein coupled receptors (GPCRs), the insect allatostatin-A receptors (AST-ARs) that are considered orthologues of galanin receptors (GALR) in vertebrates. In vertebrates, GALRs have a close evolutionary relationship with kisspeptin receptors (KISSR) and are activated by galanin (GAL) and spexin (SPX), peptides that are unrelated to insect AST-As. AST-A peptide function is relatively well studied but the receptors have only been isolated in a few insect species and their evolution and function is unresolved. In t ..."}}, "note": "Ends that are not written are not given here."}
{"substance": "DRLYSFGL-NH2 [BLAST-2, German cockroach Blattella germanica BLAST-2 peptide (DRLYSFGL-NH2)]", "values": [{"measurement": "receptor activation, iCa^2+ signalling", "setting": "[1]", "result": "activated"}, {"measurement": "receptor activation, iCa^2+ signalling", "setting": "[2]", "result": "activated"}, {"measurement": "intracellular cAMP", "setting": "[3]", "result": "None of the insect peptides induced increased intracellular cAMP"}, {"measurement": "intracellular cAMP", "setting": "[4]", "result": "None of the insect peptides induced increased intracellular cAMP"}, {"measurement": "iCa^2+ mobilization", "setting": "[5]", "result": "stimulates iCa^2+ mobilization"}, {"measurement": "iCa^2+ mobilization", "setting": "[6]", "result": "stimulates iCa^2+ mobilization"}]}
{"substance": "FNFNPFGLRF-NH2 [KISS 2–10, vertebrate KISS peptide, sea bass KISS 2–10 ([…]-NH2)]", "values": [{"measurement": "receptor activation, iCa^2+ signalling", "setting": "[1]", "result": "failed to activate"}, {"measurement": "receptor activation, iCa^2+ signalling", "setting": "[2]", "result": "failed to activate"}]}
{"substance": "YNLNSFGLRY-NH2 [KISS 1–10, vertebrate KISS peptide, sea bass KISS 1–10 ([…]-NH2)]", "values": [{"measurement": "receptor activation, iCa^2+ signalling", "setting": "[1]", "result": "failed to activate"}, {"measurement": "receptor activation, iCa^2+ signalling", "setting": "[2]", "result": "failed to activate"}]}
{"substance": "galanin (GAL): galanin (GAL), peptide activating vertebrate galanin receptors", "values": [{"measurement": "GALR activation", "setting": "[7]", "result": "activated"}]}
{"substance": "rat 1–29 GAL: 1–29 rat galanin (Sigma-Aldrich, Spain) (GWTLNSAGYLLGPHAIDNHRSFSDKHGLT; ends and bridges not checked; UniProt P10683 33-61, looked up)", "values": [{"measurement": "receptor activation, iCa^2+ signalling", "setting": "[1]", "result": "failed to activate"}, {"measurement": "receptor activation, iCa^2+ signalling", "setting": "[2]", "result": "failed to activate"}]}
{"substance": "spexin (SPX): spexin (SPX), peptide activating vertebrate galanin receptors", "values": [{"measurement": "GALR activation", "setting": "[7]", "result": "activated"}]}
